Laboratory results from patent US20130303487A1, “Compositions Comprising Zoledronic Acid or Related Compounds for Relieving Inflammatory Pain and Related Conditions” (priority 2012, published 2013).
Read-outs that look alike come from different tables or passages of the source.

What was measured:
[1] = tested on: complex regional pain syndrome (CRPS); test: rat tibia fracture model of complex regional pain syndrome (CRPS): von Frey, weight bearing, edema, warmth; format: in vivo; conditions: oral 18 mg/m^2/day (3 mg/kg/day) for 28 days
Experimental: The effect of orally administered zoledronic acid was examined in the rat tibia fracture model of complex regional pain syndrome (CRPS). CRPS was induced in the rats by fracturing the right distal tibias of the animals and casting the fractured hindpaws for 4 weeks, as described in Guo T Z et al. (Pain. 2004; 108:95-107).
Animals were orally administered either vehicle (control) or zoledronic acid, in a dosage of 18 mg/m^2/day (3 mg/kg/day) for 28 days, starting on the day of fracture and casting. Drug was dissolved in distilled water and administered by gavage. Animals were fasted for 4 hours before and 2 hours after dosing. At the end of the 28-day period, casts were removed, and on the following day, the rats were tested for hindpaw pain, edema, and warmth.
Pain was assessed by measuring hyperalgesia, and weight bearing. […]
An incapacitance device (IITC Inc. Life Science, Woodland, Calif., USA) was used to measure hindpaw weight bearing, a postural effect of pain. […] Eight readings (excluding the highest and lowest ones) were averaged to calculate the bilateral hindpaw weight-bearing values. Weight bearing data were analyzed as the ratio between right (fracture) and left hindpaw weight bearing values ((2R/(R+L))×100%). […]
The temperature of the hindpaw was measured using a fine wire thermocouple (Omega, Stanford, Conn., USA) applied to the paw skin. […]

[2] = tested on: inflammatory pain (mechanical hyperalgesia); format: in vivo, Sprague-Dawley rats
Experimental: The effect of orally administered zoledronic acid on inflammatory pain was examined using the rat complete Freund's adjuvant (CFA) model. Inflammatory pain was induced by injection of 100% CFA in a 75 μL volume into the left hind paws of Sprague-Dawley rats on day 0, followed by assessments on days 1-3. Animals were orally administered vehicle (control), zoledronic acid 18 mg/m^2 (or 3 mg/kg), zoledronic acid 120 mg/m^2 (or 20 mg/kg), or zoledronic acid 900 mg/m^2 (or 150 mg/kg) daily on days 1-3. Drug was dissolved in distilled water and prepared fresh daily. Animals were fasted prior to dosing. Under current FDA guidelines for extrapolating starting dosages from animals to humans, dosages expressed in mg/m^2 are considered equivalent between mammalian species. Thus, for example, 18 mg/m^2 in a rat is considered equivalent to 18 mg/m^2 in a human being, while 3 mg/kg in a rat may not be equivalent to 3 mg/kg in a human being.
Values for inflammatory pain (mechanical hyperalgesia) in the vehicle and drug-treated animals were obtained on day 0 prior to CFA injection, and at baseline and post-treatment on days 1-3. Pain was assessed using a digital Randall-Selitto device (dRS; IITC Life Sciences, Woodland Hills, Calif.). Animals were placed in a restraint sling that suspended the animal, leaving the hind limbs available for testing. Paw compression threshold was measured by applying increasing pressure to the plantar surface of the hind paw with a dome-shaped tip placed between the 3rd and 4th metatarsus. Pressure was applied gradually over approximately 10 seconds. Measurements were taken from the first observed nocifensive behavior of vocalization, struggle or withdrawal. A cut-off value of 300 g was used to prevent injury to the animal.
Reversal of inflammatory pain was calculated according to the formula:
% reversal=(Post-treatment−Post-CFA baseline)/(Pre-CFA baseline−Post-CFA baseline)×100.
The experiment was carried out using 9-10 animals per group.

## O=P(O)(O)C(O)(Cn1ccnc1)P(=O)(O)O [zoledronic acid]
[1]
  hindlimb weight bearing on fracture hindlimb: 86 % of normal
[2]; oral 18 mg/m^2, entire measurement period after 30 minutes from start of treatment
  paw compression thresholds versus vehicle: higher than for vehicle
[2]; oral 120 mg/m^2 (20 mg/kg), all time points
  paw compression thresholds versus vehicle: approximately equal or inferior to vehicle
[2]; oral 900 mg/m^2 (150 mg/kg) daily days 1-3, two days after cessation of dosing
  toxicity: significant toxicity necessitating euthanization of all the animals in this group
[2]; oral 900 mg/m^2, day three
  paw compression thresholds versus vehicle: greater than for vehicle
[2]; two higher doses (120 and 900 mg/m^2), first two days of dosing
  paw compression thresholds versus vehicle: lower than vehicle
